How the values were obtained:
[1] = Metabolic stability in rat liver microsomes; type: in vitro ADME; conditions: 30 minutes incubation, remaining compound by HPLC, 6-Me compounds of the invention, read-out: Rat Microsome Stability of 6-Me cyanopyridine Compounds (approximate half life)
Experimental: In order to probe the metabolic stability of the compounds of the invention, a series of compounds were selected for stability testing in rat liver microsomes. A DMSO solution of each compound was incubated for 30 minutes in the presence of rat liver homogenate. The percentage of remaining compound was assessed by HPLC. An approximate half life was calculated from the percentage of remaining compound. Table II, below, illustrates a comparison of the in vitro microsomal half life of the selected compounds verses a series of related compounds lacking the C-6 alkyl group. […] It is generally accepted in the industry that improved in vitro metabolic stability frequently translates into improved in vivo metabolic stability. Improved metabolic stability may translate to increased in vivo exposure levels.

[2] = biological target: T1, human PKCθ full length enzyme (Homo sapiens, UniProt Q04759); assay: PKCθ IMAP Assay; type: biochemical; conditions: PKCθ 1 nM; ATP 6 μM; peptide 100 nM; DMSO 5%; 25 minutes at room temperature; FP readout; read-out: PKC-Theta Mean IC50
T1 construct: human PKCθ full length enzyme (Panvera Cat# P2996); purchased Panvera P2996
Experimental: The materials used include the following: human PKCθ full length enzyme (Panvera Cat# P2996); substrate peptide: 5FAM-RFARKGSLRQKNV-OH (Molecular Devices, RP7032); ATP (Sigma Cat # A2383); DTT (Pierce, 20291); 5× kinase reaction buffer (Molecular Devices, R7209); 5× binding buffer A (Molecular Devices, R7282), 5× binding buffer B (Molecular Devices, R7209); IMAP Beads (Molecular Devices, R7284); and 384-well plates (Corning Costar, 3710).
The reaction buffer was prepared by diluting the 5× stock reaction buffer and adding DTT to obtain a concentration of 3.0 mM. The binding buffer was prepared by diluting the 5× binding buffer A. A master mix solution was prepared using a 90% dilution of the reaction buffer containing 2×ATP (12 uM) and 2× peptide (200 nm). Compounds were diluted in DMSO to 20× of the maximum concentration for the IC50 measurement. 27 μl of the master mix solution for each IC50 curve was added to the first column in a 384-well plate and 3 μl of 20× compound in DMSO was added to each well.
The final concentration of compound was 2× and 10% DMSO. DMSO was added to the rest of the master mix to increase the concentration to 10%. 10 μl of the master mix containing 10% DMSO was added to the rest of the wells on the plate except the 2nd column. 20 μl was transferred from the first column to the 2nd column. The compounds were serially diluted in 2:1 ratio starting from the 2nd column. A 2×(2 nM) PKCθ solution was made in the reaction buffer. 10 μl of the PKCθ solution was added to every well to achieve these final concentrations: PKCθ-1 nM; ATP-6 μM; peptide-100 nM; DMSO-5%. Samples were incubated for 25 minutes at room temperature. The binding reagent was prepared by diluting the beads in 1× binding buffer to 800:1. 50 μl of the binding reagent was added to every well and incubated for 20 minutes. FP was measured using Envision2100 (PerkinElmer Life Sciences). Wells with no ATP and wells with no enzyme were used as controls.

T1 sequence (Q04759 whole entry): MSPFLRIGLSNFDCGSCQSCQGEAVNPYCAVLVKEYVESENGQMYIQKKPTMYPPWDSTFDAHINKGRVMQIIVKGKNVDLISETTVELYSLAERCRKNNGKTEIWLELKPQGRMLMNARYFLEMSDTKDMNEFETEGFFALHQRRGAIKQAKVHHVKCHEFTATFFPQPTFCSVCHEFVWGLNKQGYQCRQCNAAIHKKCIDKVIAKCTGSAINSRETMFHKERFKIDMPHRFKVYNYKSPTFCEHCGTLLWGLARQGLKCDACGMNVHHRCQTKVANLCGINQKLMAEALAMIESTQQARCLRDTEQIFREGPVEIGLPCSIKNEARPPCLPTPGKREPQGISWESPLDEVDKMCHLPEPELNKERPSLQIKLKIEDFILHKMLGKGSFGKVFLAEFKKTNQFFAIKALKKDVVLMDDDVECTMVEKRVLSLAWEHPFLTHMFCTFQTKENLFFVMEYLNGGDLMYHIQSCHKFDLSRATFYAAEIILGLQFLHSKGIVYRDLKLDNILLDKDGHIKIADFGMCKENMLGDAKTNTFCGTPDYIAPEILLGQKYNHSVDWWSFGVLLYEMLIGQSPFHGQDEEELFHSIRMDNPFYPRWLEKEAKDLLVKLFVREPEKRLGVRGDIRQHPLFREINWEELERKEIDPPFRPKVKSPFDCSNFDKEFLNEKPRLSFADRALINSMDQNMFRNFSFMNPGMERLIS

Cc1ncc(C#N)c(Nc2ccc3[nH]ccc3c2C)c1-c1ccc(OCCN2CCN(C)CC2)cc1 [Example 14, 6-methyl-4-[(4-methyl-1H-indol-5-yl)amino]-5-{4-[2-(4-methylpiperazin-1-yl)ethoxy]phenyl}nicotinonitrile]
melting point: 183 to 184 °C
half-life [1]: > 30 min
IC50 [2]: 0.031 µM

Cc1ncc(C#N)c(Nc2ccc3[nH]ccc3c2C)c1-c1cc2ccccc2o1 [Example 11, 5-(1-benzofuran-2-yl)-6-methyl-4-[(4-methyl-1H-indol-5-yl)amino]nicotinonitrile]
melting point: 154 to 155 °C
IC50 [2]: 0.013 µM

COc1ccc(-c2c(C)ncc(C#N)c2Nc2cccc3[nH]ccc23)cc1OC [Example 8, 5-(3,4-dimethoxyphenyl)-4-(1H-indol-4-ylamino)-6-methylnicotinonitrile]
melting point: 182 to 183 °C
IC50 [2]: 0.151 µM

— patent publication US20110028455A1, “Indole-substituted 3-cyanopyridines As Kinase Inhibitors” (Wyeth LLC, priority 2007, published 2011)
